SMILES strings stand for the structures. Active and inactive are the calls of the source.

For two compounds, AC50 and IC50 results are on record in ChEMBL document CHEMBL1201862, “PubChem BioAssay data set” (2004).

For test [1], the target named is T1, Replicative DNA helicase DnaB (Mycobacterium tuberculosis, UniProt P9WMR3).
T1 sequence (P9WMR3 whole entry): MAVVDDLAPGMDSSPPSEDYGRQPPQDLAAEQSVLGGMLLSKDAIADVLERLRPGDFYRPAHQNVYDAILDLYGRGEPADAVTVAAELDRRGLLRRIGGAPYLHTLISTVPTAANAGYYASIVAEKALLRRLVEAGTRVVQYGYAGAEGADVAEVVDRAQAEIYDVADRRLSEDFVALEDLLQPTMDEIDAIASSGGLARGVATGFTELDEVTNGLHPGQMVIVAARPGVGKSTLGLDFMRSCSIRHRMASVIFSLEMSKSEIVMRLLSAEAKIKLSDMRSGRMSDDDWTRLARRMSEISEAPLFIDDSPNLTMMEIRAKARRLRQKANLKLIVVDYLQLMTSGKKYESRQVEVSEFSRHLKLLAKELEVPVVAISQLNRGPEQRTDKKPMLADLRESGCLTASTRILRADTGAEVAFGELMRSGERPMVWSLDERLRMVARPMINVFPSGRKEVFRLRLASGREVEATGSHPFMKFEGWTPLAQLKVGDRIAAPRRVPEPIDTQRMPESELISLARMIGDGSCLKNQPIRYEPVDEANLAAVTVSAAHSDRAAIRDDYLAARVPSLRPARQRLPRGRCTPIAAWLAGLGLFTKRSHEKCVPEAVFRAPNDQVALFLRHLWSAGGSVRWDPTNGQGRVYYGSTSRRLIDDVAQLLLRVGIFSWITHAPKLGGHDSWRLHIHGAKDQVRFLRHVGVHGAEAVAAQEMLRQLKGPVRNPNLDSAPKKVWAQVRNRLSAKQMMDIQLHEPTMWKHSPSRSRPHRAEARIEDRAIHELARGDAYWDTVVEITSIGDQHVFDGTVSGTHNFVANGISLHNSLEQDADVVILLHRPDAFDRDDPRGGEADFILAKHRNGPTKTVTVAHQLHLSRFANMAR
Nature of the test: DnaB intein splicing inhibitors, dose response, biochemical, cell-free fluorescence (AID 449749). The class given is functional.

For test [2], the target named is T2, Tyrosine-protein phosphatase non-receptor type 7 (Homo sapiens, UniProt P35236).
T2 sequence (P35236 whole entry): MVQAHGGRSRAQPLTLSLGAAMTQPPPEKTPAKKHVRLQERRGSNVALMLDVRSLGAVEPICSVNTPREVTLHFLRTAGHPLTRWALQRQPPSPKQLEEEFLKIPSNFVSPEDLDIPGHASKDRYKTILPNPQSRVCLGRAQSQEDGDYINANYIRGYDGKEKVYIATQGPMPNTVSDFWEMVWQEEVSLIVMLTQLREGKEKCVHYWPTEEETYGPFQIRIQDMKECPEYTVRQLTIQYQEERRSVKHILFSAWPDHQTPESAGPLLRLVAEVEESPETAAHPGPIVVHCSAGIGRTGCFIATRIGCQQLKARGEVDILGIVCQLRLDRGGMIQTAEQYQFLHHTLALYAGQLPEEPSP
The test can be described thus: HTS HePTP Fluorescent Assay using OMFP substrate for In Vitro dose response studies. [Related pubchem assays (depositor defined):AID1059, AID1077, AID1784, AID2068, AID2085, AID435032, AID521]. The class given is functional.

Test [3] addresses T3, Tyrosine-protein phosphatase non-receptor type 22 (Homo sapiens, UniProt Q9Y2R2).
T3 sequence (Q9Y2R2 whole entry): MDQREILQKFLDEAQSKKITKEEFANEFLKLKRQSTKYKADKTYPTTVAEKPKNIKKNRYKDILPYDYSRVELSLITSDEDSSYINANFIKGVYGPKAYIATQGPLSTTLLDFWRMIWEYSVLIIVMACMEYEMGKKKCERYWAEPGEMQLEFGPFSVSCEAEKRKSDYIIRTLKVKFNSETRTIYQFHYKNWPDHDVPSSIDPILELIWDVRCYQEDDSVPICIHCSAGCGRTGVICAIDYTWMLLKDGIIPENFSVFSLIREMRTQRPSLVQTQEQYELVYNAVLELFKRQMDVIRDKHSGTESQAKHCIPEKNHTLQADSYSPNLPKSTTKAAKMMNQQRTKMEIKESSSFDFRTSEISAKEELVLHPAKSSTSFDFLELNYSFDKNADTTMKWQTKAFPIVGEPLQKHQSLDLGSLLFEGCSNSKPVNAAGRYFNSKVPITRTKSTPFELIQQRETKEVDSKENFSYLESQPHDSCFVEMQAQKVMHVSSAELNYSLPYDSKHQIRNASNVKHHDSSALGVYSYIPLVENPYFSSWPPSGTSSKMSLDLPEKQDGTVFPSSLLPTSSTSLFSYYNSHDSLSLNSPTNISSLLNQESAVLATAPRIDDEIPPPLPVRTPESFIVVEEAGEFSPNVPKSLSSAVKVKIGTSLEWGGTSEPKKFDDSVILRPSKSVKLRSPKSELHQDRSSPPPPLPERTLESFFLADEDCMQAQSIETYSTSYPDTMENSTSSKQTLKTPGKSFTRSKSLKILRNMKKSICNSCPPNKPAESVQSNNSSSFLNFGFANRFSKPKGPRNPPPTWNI
The test can be described thus: PTPN22 lymphoid phosphatase activity blockers – biochemical, fluorescence intensity, uHTS (AID 1779).

In test [4] the target is T3, Tyrosine-protein phosphatase non-receptor type 22. The class given is functional.
For test [5], the target named is T2, Tyrosine-protein phosphatase non-receptor type 7. Nature of the test: redox-active compounds inhibiting HePTP phosphatase – biochemical, fluorescence, mechanism study (AID 2068). Type of test: functional.
In test [6] the target is DNA (cytosine-5)-methyltransferase 1 (Homo sapiens, UniProt P26358). The test can be described thus: inhibition of DNA methylation by DNMT1 – biochemical, fluorescent molecular beacon, confirmation (AID 602386). Type of test: functional.
Test [7] has as its target 26S proteasome non-ATPase regulatory subunit 14 (Homo sapiens, UniProt O00487). Nature of the test: inhibition of proteasome subunit RPN11 – biochemical, fluorescence polarization, uHTS hits, confirmation (AID 602368). The class given is functional.
Test [8] addresses 72 kDa type IV collagenase (Homo sapiens, UniProt P08253). The test can be described thus: Dose Response validation of uHTS RPN11 inhibitor hits using a MMP-2 Fluorescence assay. Type of test: functional.
Test [9] has as its target Prothrombin (Bos taurus, UniProt P00735). Nature of the test: thrombin protease inhibitors – biochemical, fluorescence polarization, uHTS hits, dose response (AID 602369). The class given is functional. For orientation: Fluorescence polarisation rises when a labelled molecule tumbles more slowly, as on binding a larger partner.
Test [10] addresses Small ubiquitin-related modifier 1 (Homo sapiens, UniProt P63165). Nature of the test: SUMO1 protein-protein binding blockers, potency – biochemical, FRET, dose response (AID 624383). The class given is functional. Conditions: read-out: IC50_Mean.

Sequence of 72 kDa type IV collagenase (P08253 whole entry): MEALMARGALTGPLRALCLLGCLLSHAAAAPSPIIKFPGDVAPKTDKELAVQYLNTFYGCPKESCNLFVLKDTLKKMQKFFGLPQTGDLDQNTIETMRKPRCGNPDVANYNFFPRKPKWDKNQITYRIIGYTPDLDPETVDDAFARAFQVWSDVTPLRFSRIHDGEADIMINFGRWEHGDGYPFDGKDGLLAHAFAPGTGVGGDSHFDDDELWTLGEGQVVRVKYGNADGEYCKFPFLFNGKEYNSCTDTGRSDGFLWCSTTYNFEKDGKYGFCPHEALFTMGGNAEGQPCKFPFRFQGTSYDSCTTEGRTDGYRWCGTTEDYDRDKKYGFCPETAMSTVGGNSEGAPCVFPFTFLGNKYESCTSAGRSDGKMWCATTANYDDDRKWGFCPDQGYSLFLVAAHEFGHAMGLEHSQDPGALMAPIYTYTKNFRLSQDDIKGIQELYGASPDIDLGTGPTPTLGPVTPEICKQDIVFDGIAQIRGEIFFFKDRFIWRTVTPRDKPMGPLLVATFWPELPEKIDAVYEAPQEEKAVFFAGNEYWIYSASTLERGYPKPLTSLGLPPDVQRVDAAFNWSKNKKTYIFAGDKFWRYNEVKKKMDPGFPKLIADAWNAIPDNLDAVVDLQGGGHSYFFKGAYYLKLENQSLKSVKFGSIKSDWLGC
Sequence of 26S proteasome non-ATPase regulatory subunit 14 (O00487 whole entry): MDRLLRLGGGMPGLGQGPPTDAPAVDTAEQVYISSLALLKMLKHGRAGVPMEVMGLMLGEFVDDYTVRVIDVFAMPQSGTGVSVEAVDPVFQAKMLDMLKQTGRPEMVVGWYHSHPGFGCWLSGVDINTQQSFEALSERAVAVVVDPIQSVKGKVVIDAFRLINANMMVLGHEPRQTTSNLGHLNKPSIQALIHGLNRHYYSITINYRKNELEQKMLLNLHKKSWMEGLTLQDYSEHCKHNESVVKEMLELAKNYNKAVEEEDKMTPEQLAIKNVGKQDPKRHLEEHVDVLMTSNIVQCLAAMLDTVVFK
Sequence of DNA (cytosine-5)-methyltransferase 1 (P26358 whole entry): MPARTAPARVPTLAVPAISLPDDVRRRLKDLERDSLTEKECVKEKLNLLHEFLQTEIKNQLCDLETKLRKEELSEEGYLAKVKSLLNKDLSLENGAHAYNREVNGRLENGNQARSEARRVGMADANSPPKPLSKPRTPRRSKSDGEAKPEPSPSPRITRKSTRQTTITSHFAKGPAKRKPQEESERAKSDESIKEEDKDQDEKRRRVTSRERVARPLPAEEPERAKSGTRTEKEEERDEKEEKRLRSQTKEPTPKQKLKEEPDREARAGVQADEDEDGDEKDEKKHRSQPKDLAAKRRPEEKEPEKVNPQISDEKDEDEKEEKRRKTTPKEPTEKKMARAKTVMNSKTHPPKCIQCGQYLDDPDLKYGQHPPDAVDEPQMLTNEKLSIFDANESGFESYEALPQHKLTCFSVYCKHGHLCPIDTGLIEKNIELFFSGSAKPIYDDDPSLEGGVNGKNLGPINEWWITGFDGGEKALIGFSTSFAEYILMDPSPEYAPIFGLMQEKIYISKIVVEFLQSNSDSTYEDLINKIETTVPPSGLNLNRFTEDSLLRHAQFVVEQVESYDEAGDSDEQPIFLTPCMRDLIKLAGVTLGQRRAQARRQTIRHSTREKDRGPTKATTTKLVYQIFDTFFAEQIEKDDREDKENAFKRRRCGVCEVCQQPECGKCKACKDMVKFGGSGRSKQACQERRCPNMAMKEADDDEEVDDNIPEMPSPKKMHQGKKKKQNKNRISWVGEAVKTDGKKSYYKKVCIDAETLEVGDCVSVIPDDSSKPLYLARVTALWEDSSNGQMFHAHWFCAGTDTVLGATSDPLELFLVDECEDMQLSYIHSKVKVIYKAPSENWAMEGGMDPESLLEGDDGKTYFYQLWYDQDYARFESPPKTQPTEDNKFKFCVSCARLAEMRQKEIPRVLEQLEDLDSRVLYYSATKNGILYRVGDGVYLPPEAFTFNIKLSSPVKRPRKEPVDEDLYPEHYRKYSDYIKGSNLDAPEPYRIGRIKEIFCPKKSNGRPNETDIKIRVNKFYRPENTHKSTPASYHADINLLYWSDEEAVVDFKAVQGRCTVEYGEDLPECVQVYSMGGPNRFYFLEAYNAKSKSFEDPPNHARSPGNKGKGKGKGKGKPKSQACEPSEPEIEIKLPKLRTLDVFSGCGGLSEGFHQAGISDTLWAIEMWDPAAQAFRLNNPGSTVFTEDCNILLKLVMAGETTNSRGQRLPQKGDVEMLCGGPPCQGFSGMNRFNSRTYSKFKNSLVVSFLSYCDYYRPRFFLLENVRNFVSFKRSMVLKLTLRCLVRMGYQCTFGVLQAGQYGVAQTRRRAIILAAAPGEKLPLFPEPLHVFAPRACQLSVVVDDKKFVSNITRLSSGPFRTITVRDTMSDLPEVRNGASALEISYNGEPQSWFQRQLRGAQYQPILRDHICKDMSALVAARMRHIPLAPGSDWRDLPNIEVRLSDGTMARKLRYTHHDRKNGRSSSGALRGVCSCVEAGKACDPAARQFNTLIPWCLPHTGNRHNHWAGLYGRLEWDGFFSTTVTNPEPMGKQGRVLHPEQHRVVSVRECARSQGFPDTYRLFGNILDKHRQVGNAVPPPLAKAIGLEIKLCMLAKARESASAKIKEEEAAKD
Sequence of Small ubiquitin-related modifier 1 (P63165 whole entry): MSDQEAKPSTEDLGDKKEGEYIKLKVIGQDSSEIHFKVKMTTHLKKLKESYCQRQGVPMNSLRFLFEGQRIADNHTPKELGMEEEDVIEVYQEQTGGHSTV

For `CCOC(=O)c1ccc(Nc2cc3ccccc3c(O)n2)cc1`, the AC50 (commonly the concentration giving half of the maximal activity seen) in test [1] was 11.1 µM (active).
For `CCOC(=O)c1sc2nc3c(SCC(=O)O)cc(C(=O)c4ccccc4O)cn3c(=O)c2c1C`, the IC50 in [2] is > 99 µM (inactive); in [3] it was > 99 µM (inactive); in [4], < 1.24 µM (active); in [5], 0.105 µM (active); in test [6] it was 4.12 µM (active); in test [7] it was 6.79 µM (active). Besides, the IC50 was 0.821 µM (active) in test [8], 56.6 µM (active) in test [9] and 6.2 µM (active) in [10].
